Source: ChEMBL document CHEMBL1154509, “Synthesis and in vitro biological activity of retinyl polyhydroxybenzoates, novel hybrid retinoid derivatives” (Bioorg Med Chem Lett, 2009)

Assays:
[1] = Antioxidant activity assessed as free radical scavenging activity at 5 uM; format: functional
[2] = Antioxidant activity assessed as free radical scavenging activity at 10 uM; format: functional
[3] = tested on: Fibroblast; assay: Skin whitening activity in […] assessed as inhibition of melanin formation at 0.0002 weight % concentration relative to resveratrol; format: functional
[4] = Toxicity against human dermal fibroblasts; format: cell-based, Fibroblast
[5] = target: T1, Tyrosinase (Homo sapiens) (UniProt P14679); assay: Inhibition of tyrosinase at 5 uM
T1 sequence (whole entry): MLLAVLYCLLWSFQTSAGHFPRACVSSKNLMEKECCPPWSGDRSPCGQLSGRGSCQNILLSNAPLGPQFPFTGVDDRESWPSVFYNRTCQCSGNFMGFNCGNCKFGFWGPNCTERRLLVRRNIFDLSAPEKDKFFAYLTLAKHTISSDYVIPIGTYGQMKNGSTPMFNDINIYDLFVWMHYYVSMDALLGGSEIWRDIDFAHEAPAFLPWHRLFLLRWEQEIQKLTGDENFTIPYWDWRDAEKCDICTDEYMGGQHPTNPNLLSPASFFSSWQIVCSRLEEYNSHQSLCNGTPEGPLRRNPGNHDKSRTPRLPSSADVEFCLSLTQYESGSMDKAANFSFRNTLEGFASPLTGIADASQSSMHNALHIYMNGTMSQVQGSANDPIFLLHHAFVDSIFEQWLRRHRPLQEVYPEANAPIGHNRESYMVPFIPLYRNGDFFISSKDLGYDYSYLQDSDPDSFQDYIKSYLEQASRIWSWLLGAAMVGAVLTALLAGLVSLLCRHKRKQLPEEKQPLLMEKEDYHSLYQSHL

[6] = Inhibition of elastase at 5 uM
[7] = target: T2, Tyrosinase (Mus musculus) (UniProt P11344); assay: Inhibition of tyrosinase activity in mouse B16/F10 cells at 5 uM relative to control; format: cell-based
T2 sequence (whole entry): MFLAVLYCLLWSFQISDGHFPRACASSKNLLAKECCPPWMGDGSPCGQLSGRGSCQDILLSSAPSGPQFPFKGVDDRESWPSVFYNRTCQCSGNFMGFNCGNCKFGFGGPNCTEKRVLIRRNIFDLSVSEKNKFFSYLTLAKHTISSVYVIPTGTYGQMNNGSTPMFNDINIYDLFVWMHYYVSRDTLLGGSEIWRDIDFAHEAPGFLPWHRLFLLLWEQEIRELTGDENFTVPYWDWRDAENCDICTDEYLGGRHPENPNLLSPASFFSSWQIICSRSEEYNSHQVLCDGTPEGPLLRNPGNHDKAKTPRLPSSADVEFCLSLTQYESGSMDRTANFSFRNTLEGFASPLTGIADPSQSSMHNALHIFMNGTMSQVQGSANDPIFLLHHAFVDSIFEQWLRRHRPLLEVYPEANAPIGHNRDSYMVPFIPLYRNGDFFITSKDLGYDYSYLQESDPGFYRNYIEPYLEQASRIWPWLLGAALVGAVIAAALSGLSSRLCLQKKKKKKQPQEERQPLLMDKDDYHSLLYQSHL

[8] = Anti-aging activity in human dermal fibroblasts assessed as rate of procollagen formation at 0.0002 weight % concentration relative to retinol; format: functional, Fibroblast
[9] = tested on: Fibroblast; assay: Inhibition of melanogenesis in […] at 5 uM; format: functional
[10] = Toxicity against human dermal fibroblasts assessed as cell viability at 5 uM relative to control; format: cell-based, Fibroblast; details: read-out: Activity
[11] = Thermal stability at 40 degC assessed as compound degradation after 4 weeks by HPLC; format: physicochemical
[12] = Inhibition of elastase at 10 uM
[13] = tested on: Fibroblast; assay: Increase of collagen synthesis in human dermal fibroblasts at 5 uM; format: functional
[14] = Anti-aging activity in human dermal fibroblasts assessed as inhibition rate of MMP1 expression at 5 uM relative to control; format: functional; details: Fibroblast
[15] = Toxicity against mouse B16/F10 cells assessed as cell viability at 5 uM relative to control; format: cell-based; details: read-out: Activity
[16] = tested on: B16-F10; assay: Inhibition of rate of melanin formation in mouse B16/F10 cells at 5 uM relative to control; format: functional
[17] = Anti-aging activity in human dermal fibroblasts assessed as expression rate of procollagen type 1 formation at 5 uM relative to control; format: functional, Fibroblast
[18] = tested on: Fibroblast; assay: Skin whitening activity in […] assessed as inhibition of melanin formation at 0.001 weight % concentration relative to resveratrol; format: functional
[19] = Anti-aging activity in human dermal fibroblasts assessed as rate of procollagen formation at 0.005 weight % concentration relative to retinol; format: functional, Fibroblast
[20] = Anti-aging activity in human dermal fibroblasts assessed as inhibition rate of MMP1 expression at 10 uM relative to control; format: functional; details: Fibroblast
[21] = Toxicity against human dermal fibroblasts assessed as cell viability at 10 uM relative to control; format: cell-based, Fibroblast; details: read-out: Activity
[22] = Anti-aging activity in human dermal fibroblasts assessed as rate of procollagen formation at 0.0005 weight % concentration relative to retinol; format: functional, Fibroblast
[23] = Anti-aging activity in human dermal fibroblasts assessed as expression rate of procollagen type 1 formation at 10 uM relative to control; format: functional, Fibroblast
[24] = Anti-aging activity in human dermal fibroblasts assessed as rate of procollagen formation at 0.0001 weight % concentration relative to retinol; format: functional, Fibroblast
[25] = Toxicity against human dermal fibroblasts assessed as cell viability at 1 uM relative to control; format: cell-based, Fibroblast; details: read-out: Activity
[26] = tested on: B16-F10; assay: Inhibition of rate of melanin formation in mouse B16/F10 cells at 10 ppm relative to control; format: functional
[27] = Toxicity against mouse B16/F10 cells assessed as cell viability at 10 ppm relative to control; format: cell-based; details: read-out: Activity
[28] = target: T2, Tyrosinase (Mus musculus); assay: Inhibition of tyrosinase activity in mouse B16/F10 cells at 10 ppm relative to control; format: cell-based
[29] = Anti-aging activity in human dermal fibroblasts assessed as rate of procollagen formation at 0.001 weight % concentration relative to retinol; format: functional, Fibroblast
[30] = Anti-aging activity in human dermal fibroblasts assessed as expression rate of procollagen type 1 formation at 200 uM relative to control; format: functional, Fibroblast
[31] = Toxicity against human dermal fibroblasts assessed as cell viability at 200 uM relative to control; format: cell-based, Fibroblast; details: read-out: Activity
[32] = Anti-aging activity in human dermal fibroblasts assessed as expression rate of procollagen type 1 formation at 1 uM relative to control; format: functional, Fibroblast
[33] = Anti-aging activity in human dermal fibroblasts assessed as inhibition rate of MMP1 expression at 1 uM relative to control; format: functional; details: Fibroblast
[34] = Anti-aging activity in human dermal fibroblasts assessed as rate of procollagen formation at 0.002 weight % concentration relative to retinol; format: functional, Fibroblast
[35] = tested on: Fibroblast; assay: Skin whitening activity in […] assessed as inhibition of melanin formation at 0.002 weight % concentration relative to resveratrol; format: functional

## CC(/C=C/C1=CCCCC1(C)C)=C\C=C\C(C)=C\COC(=O)c1cc(O)c(O)c(O)c1
[1]
  Activity: 31.1%
[2]
  Activity: 62.8%
[3]
  inhibition (INH): 73%
[4]
  IC50: 35 µM
[5]
  inhibition: 2.5%
[6]
  inhibition: 12.3%
[7]
  inhibition: 49.6%
[8]
  Activity: 91%
[9]
  inhibition at 5 µM: 18.6%
[10]
  viability at 5 µM: 84.2%
[11]; 672 h
  Stability: Stable
[12]
  inhibition: 15.3%
[13]
  Activity: 13.5%
[14]
  inhibition at 5 µM: -19.3%
[15]
  viability at 5 µM: 83.9%
[16]
  inhibition at 5 µM: 27.5%
[17]
  Activity: 115.9%

## COc1cccc(O)c1C(=O)OC/C=C(C)/C=C/C=C(C)/C=C/C1=CCCCC1(C)C
[4]
  IC50: 230 µM
[18]
  inhibition (INH): 28%
[19]
  Activity: 54%

## CC1=C(/C=C/C(C)=C/C=C/C(C)=C/C(=O)O)C(C)(C)CCC1 [TRETINOIN]
[20]
  inhibition at 10 µM: 59.2%
[21]
  viability at 10 µM: 105%

## COc1cc(O)c(C(=O)OC/C=C(C)/C=C/C=C(C)/C=C/C2=CCCCC2(C)C)c(O)c1
[4]
  IC50: 14 µM
[18]
  inhibition (INH): 95%
[7]
  inhibition: 41.9%
[22]
  Activity: 55%
[20]
  inhibition at 10 µM: -17.4%
[21]
  viability at 10 µM: 92.6%
[15]
  viability at 5 µM: 102%
[16]
  inhibition at 5 µM: 9.5%
[23]
  Activity: 89.2%

## C[C@H]1[C@H](C)CC[C@]2(C(=O)O)CC[C@]3(C)C(=CC[C@@H]4[C@@]5(C)CC[C@H](O)C(C)(C)[C@@H]5CC[C@]43C)[C@H]12 [URSOLIC ACID]
[4]
  IC50: 3.5 µM
[6]
  inhibition: 10.3%
[12]
  inhibition: 14.1%

## CC(/C=C/C1=CCCCC1(C)C)=C\C=C\C(C)=C\COC(=O)c1cccc(O)c1O
[4]
  IC50: < 10 µM
[18]
  inhibition (INH): 105%
[7]
  inhibition: 36.7%
[24]
  Activity: 66%
[25]
  viability at 1 µM: 71.8%
[15]
  viability at 5 µM: 97%
[16]
  inhibition at 5 µM: 18.6%

## COc1cc(/C=C/C(=O)Oc2cc(C)ccc2C(C)C)cc(OC)c1OC
[26]
  inhibition at 10 ppm: 39.3%
[27]
  viability at 10 ppm: 95.4%
[28]
  inhibition: 46.9%

## CC(/C=C/C1=CCCCC1(C)C)=C\C=C\C(C)=C\COC(=O)c1cc(O)ccc1O
[4]
  IC50: 14 µM
[18]
  inhibition (INH): 95%
[7]
  inhibition: 31.3%
[22]
  Activity: 55%
[20]
  inhibition at 10 µM: -32.2%
[21]
  viability at 10 µM: 91.8%
[15]
  viability at 5 µM: 99.7%
[16]
  inhibition at 5 µM: 25.8%
[23]
  Activity: 78.7%

## COc1ccc(O)c(C(=O)OC/C=C(C)/C=C/C=C(C)/C=C/C2=CCCCC2(C)C)c1
[4]
  IC50: 570 µM
[18]
  inhibition (INH): 30%
[29]
  Activity: 81%

## CC(/C=C/C1=CCCCC1(C)C)=C\C=C\C(C)=C\COC(=O)c1cc(O)c2ccccc2c1O
[4]
  IC50: 420 µM
[18]
  inhibition (INH): 18%
[22]
  Activity: 37%

## COc1cc(NC(C)=O)cc(C(=O)OC/C=C(C)/C=C/C=C(C)/C=C/C2=CCCCC2(C)C)c1O
[4]
  IC50: < 10 µM
[29]
  Activity: 15%

## COc1cccc(C(=O)OC/C=C(C)/C=C/C=C(C)/C=C/C2=CCCCC2(C)C)c1O
[4]
  IC50: 27 µM
[18]
  inhibition (INH): 22%
[7]
  inhibition: 38.1%
[22]
  Activity: 116%
[20]
  inhibition at 10 µM: 16.9%
[21]
  viability at 10 µM: 126%
[15]
  viability at 5 µM: 107%
[16]
  inhibition at 5 µM: 16.2%
[23]
  Activity: 70%

## O=C1O[C@H]([C@@H](O)CO)C(O)=C1O [ASCORBIC ACID]
[1]
  Activity: 19.1%
[2]
  Activity: 38.6%
[30]
  Activity: 127.5%
[31]
  viability at 200 µM: 95.4%

## O=C(O[C@@H]1Cc2c(O)cc(O)cc2O[C@@H]1c1cc(O)c(O)c(O)c1)c1cc(O)c(O)c(O)c1 [EPIGALOCATECHIN GALLATE]
[20]
  inhibition at 10 µM: 46.7%
[21]
  viability at 10 µM: 95.2%

## CC(/C=C/C1=CCCCC1(C)C)=C\C=C\C(C)=C\COC(=O)c1c(O)cccc1O
[32]
  Activity: 85.5%
[4]
  IC50: 14 µM
[18]
  inhibition (INH): 112%
[7]
  inhibition: 45.4%
[22]
  Activity: 102%
[25]
  viability at 1 µM: 88.1%
[33]
  inhibition at 1 µM: -63%
[15]
  viability at 5 µM: 102%
[16]
  inhibition at 5 µM: 12.7%

## CC1=C(/C=C/C(C)=C/C=C/C(C)=C/CO)C(C)(C)CCC1 [RETINOL]
[4]
  IC50: 50 µM
[11]; read-out: Activity
  degraded at 672 h: 70%
[13]
  Activity: 33.4%

## OC[C@H]1O[C@@H](Oc2ccc(O)cc2)[C@H](O)[C@@H](O)[C@@H]1O [ARBUTIN]
[5]
  inhibition: -1.5%
[9]
  inhibition at 5 µM: 5.5%

## CC(/C=C/C1=CCCCC1(C)C)=C\C=C\C(C)=C\COC(=O)c1ccc(O)cc1O
[4]
  IC50: 120 µM
[18]
  inhibition (INH): 41%
[29]
  Activity: 26%

## Oc1ccc(/C=C/c2cc(O)cc(O)c2)cc1 [RESVERATROL]
[1]
  Activity: 5.6%
[2]
  Activity: 16.7%
[4]
  IC50: 900 µM
[5]
  inhibition: 36.2%
[9]
  inhibition at 5 µM: 25.5%

## CC(=O)Oc1ccccc1C(=O)OC/C=C(C)/C=C/C=C(C)/C=C/C1=CCCCC1(C)C
[4]
  IC50: 150 µM
[34]
  Activity: 61%
[35]
  inhibition (INH): 32%

## CC(/C=C/C1=CCCCC1(C)C)=C\C=C\C(C)=C\COC(=O)c1ccccc1O
[4]
  IC50: 150 µM
[34]
  Activity: 46%
[35]
  inhibition (INH): 34%
